Experiments:
[1] = system: rice; assay: Hothouse test on rice in flooded culture, 66 days (Example 9b); format: in vivo, rice cv. RIBE
From the text: A test was arranged in a hothouse on a set of boxes having a 1,000 cm^2 internal surface. 18 Kg. of sieved rice field earth were put into each box. After leveling, the earth surfaces of each of a set of six boxes were uniformly sprayed with hydroacetone solutions containing, respectively, 0, 0.5, 0.75, 1, 1.25, and 1.5% of M3432. 20 Cc. of solution was sprayed into each box, corresponding to 0, 10, 15, 20, 25, and 30 kg./ha., respectively. Each box was flooded with a 10 cm. water layer measured from the earth surface. The sowing was carried out immediately afterwards with a pre-germinated (cv) RIBE rice seed, employing a quantity of 40 seeds per box.
A second test was carried out in a hothouse, employing the identical method and under the identical conditions as in Example 9a.

[2] = system: Alisma sp.; assay: Outdoor infestation degree in rice plots (Example 15); format: in vivo; details: 36 days
Description: (§1) In the province of Novara, Italy, a test was performed outdoors in clay soil. For each treatment, a 600 m^2 plot provided with independent water feed was prepared. After soil working and leveling, the treatment was effected on Apr. 23, 1970, using formulations in emulsifiable oils of M3432 and of molinate, sprayed by means of mechanical devices. Only the plot treated with molinate was harrowed just after treatment in order to incorporate the product and to avoid any losses of same due to volatilization. Immediately afterwards, the plots were flooded to a water level of 10-12 cm.
(§2) A clear confirmation of the efficiency of M3432 towards Echinocloa spp. was obtained outdoors, where the test was carried out under conditions which are characteristic of Italian rice growing. The experimental conditions are described in Example 10.

[3] = system: Echinocloa spp.; assay: as above; format: in vivo; details: for Infestation degree, plants per 10 square meters: 2 months
Description: as §1, §2

[4] = system: Scirpus sp.; assay: as above; format: in vivo; details: 36 days
Description: as §1, §2

[5] = system: Echinocloa spp.; assay: Pre-emergence activity on Echinocloa in flooded cultures, pots (Example 13); format: in vivo
Description: Into a set of cylindrical pots having a 200 cm^2 internal surface, sieved rice field earth in a quantity of 1 kg. per pot was introduced. After leveling and wetting with 200 cc. of water, the earth surface of the pots was uniformly sprayed with hydroacetone solutions containing, respectively, 0, 0.2, 0.3, and 0.4% active product (a.p.). 4 Ml. of the solution were sprayed onto each pot, so that the amount of active product in a set of four pots was 0, 4, 6, and 8 kg./ha., respectively. Immediately after spraying, each pot was filled with water to a level of 7 cm. over the soil surface. Thereafter, the sowing was carried out at the rate of 15 pre-germinated rice seeds per pot. Three repetitions were performed for each treatment. The pots were kept in an air-conditioned atmosphere with a daily temperature variation between 10° and 25°C and a 14 hour per day light period. […]
The same method described in Example 7 was adopted, the only variations being the doses (0, 0.5, 1, 2 and 4 kg./ha.). the type of formulation and the sowing of Echinocloa spp. (25 slightly pre-germinated seeds per pot) instead of rice.

[6] = system: rice; assay: Outdoor comparison of rice stimulating action of M3432 with lower homologues and isomers (Example 11); format: in vivo; details: 21 days after sowing
Description: In the province of Pavia, a test was carried out with outdoor treatments in a loam soil, on rice plots having a 12 m^2 surface each.
Formulations of 20% M3432 in emulsifiable oil were compared with 20% formulations in emulsifiable oil of S-benzyl-N,N-diisopropyl thiocarbamate; S-benzyl-N,N-diisobutylthiocarbamate; and S-benzyl-N,N-din.butylthiocarbamate employing quantities of 4, 6 and 20 kg./ha.
For each treatment, the results were gathered on 20 plants 21 days after the sowing.

[7] = Test No. 1, hydroacetone solution, 2 kg./ha., 22 days
[8] = Test No. 1, hydroacetone solution, 4 kg./ha., 22 days
[9] = Test No. 2, hydroacetone solution, 0.5 kg./ha., 21 days
[10] = Test No. 2, hydroacetone solution, 1 kg./ha., 21 days
[11] = Test No. 2, hydroacetone solution, 2 kg./ha., 21 days
[12] = Test No. 3, 50% emulsifiable oil, 2 kg./ha., 27 days
[13] = Test No. 3, 50% emulsifiable oil, 4 kg./ha., 27 days
[14] = Test No. 3, hydroacetone solution, 2 kg./ha., 27 days
[15] = Test No. 3, hydroacetone solution, 4 kg./ha., 27 days

CCC(C)N(C(=O)SCc1ccccc1)C(C)CC (stereo not shown) [M3432, S-benzyl-N,N-disec.butylthiocarbamate]
Main root ([1]; 10 kg./ha.): 12.64 cm. | Roots, weight on dry basis ([1]; 10 kg./ha.): 5.550 g. per 100 plant | Secondary roots ([1]; 10 kg./ha.): 12.20 No. | Shoot ([1]; 10 kg./ha.): 16.74 cm. | Shoot, weight on dry basis ([1]; 10 kg./ha.): 8.000 g. per 100 plant | Sprouted plants ([1]; 10 kg./ha.): 45.0% | Main root ([1]; 15 kg./ha.): 13.54 cm. | Roots, weight on dry basis ([1]; 15 kg./ha.): 6.800 g. per 100 plant | Secondary roots ([1]; 15 kg./ha.): 13.30 No. | Shoot ([1]; 15 kg./ha.): 18.16 cm. | Shoot, weight on dry basis ([1]; 15 kg./ha.): 11.800 g. per 100 plant | Sprouted plants ([1]; 15 kg./ha.): 45.0% | Main root ([1]; 20 kg./ha.): 17.16 cm. | Roots, weight on dry basis ([1]; 20 kg./ha.): 10.480 g. per 100 plant | Secondary roots ([1]; 20 kg./ha.): 21.00 No. | Shoot ([1]; 20 kg./ha.): 26.00 cm. | Shoot, weight on dry basis ([1]; 20 kg./ha.): 18.050 g. per 100 plant | Sprouted plants ([1]; 20 kg./ha.): 60.0% | Main root ([1]; 25 kg./ha.): 10.26 cm. | Roots, weight on dry basis ([1]; 25 kg./ha.): 4.250 g. per 100 plant | Secondary roots ([1]; 25 kg./ha.): 10.05 No. | Shoot ([1]; 25 kg./ha.): 15.00 cm. | Shoot, weight on dry basis ([1]; 25 kg./ha.): 6.875 g. per 100 plant | Sprouted plants ([1]; 25 kg./ha.): 40.0% | Main root ([1]; 30 kg./ha.): 8.21 cm. | Roots, weight on dry basis ([1]; 30 kg./ha.): 2.800 g. per 100 plant | Secondary roots ([1]; 30 kg./ha.): 8.00 No. | Shoot ([1]; 30 kg./ha.): 14.50 cm. | Shoot, weight on dry basis ([1]; 30 kg./ha.): 5.050 g. per 100 plant | Sprouted plants ([1]; 30 kg./ha.): 40.0% | Infestation degree ([2]; 4 kg./ha.): low (low = 0.5-1 plants per m^2) | Infestation degree ([2]; 6 kg./ha.): low (low = 0.5-1 plants per m^2) | Infestation degree, plants per 10 square meters ([3]; 4 kg./ha.): 0.25 no. | Infestation degree, plants per 10 square meters ([3]; 6 kg./ha.): 0.33 no. | Infestation degree ([4]; 4 kg./ha.): low (low = 0.5-1 plants per m^2) | Infestation degree ([4]; 6 kg./ha.): low (low = 0.5-1 plants per m^2) | Main root [5, 7]: 0 cm. | Shoot [5, 7]: 0 cm. | Stand (Sprouted plants) [5, 7]: 0% | Main root [5, 8]: 0 cm. | Shoot [5, 8]: 0 cm. | Stand (Sprouted plants) [5, 8]: 0% | Main root [5, 9]: 3.28 cm. | Shoot [5, 9]: 8.81 cm. | Stand [5, 9]: 62% | Main root [5, 10]: 0 cm. | Shoot [5, 10]: 0 cm. | Stand [5, 10]: 0% | Main root [5, 11]: 0 cm. | Shoot [5, 11]: 0 cm. | Stand [5, 11]: 0% | Main root [5, 12]: 0 cm. | Shoot [5, 12]: 0 cm. | Stand [5, 12]: 0% | Main root [5, 13]: 0 cm. | Shoot [5, 13]: 0 cm. | Stand [5, 13]: 0% | Main root [5, 14]: 0 cm. | Shoot [5, 14]: 0 cm. | Stand [5, 14]: 0% | Main root [5, 15]: 0 cm. | Shoot [5, 15]: 0 cm. | Stand [5, 15]: 0% | Main roots ([6]; 4 kg./ha.): 5.55 No. | Secondary roots ([6]; 4 kg./ha.): 2.52 No. | Shoot ([6]; 4 kg./ha.): 7.11 cm. | Main roots ([6]; 6 kg./ha.): 5.73 No. | Secondary roots ([6]; 6 kg./ha.): 2.63 No. | Shoot ([6]; 6 kg./ha.): 7.34 cm. | Main roots ([6]; 20 kg./ha.): 6.76 No. | Secondary roots ([6]; 20 kg./ha.): 2.63 No. | Shoot ([6]; 20 kg./ha.): 7.68 cm.

CCSC(=O)N1CCCCCC1 [Molinate, ethyl-1-hexamethylene-imino-carbothiolate, reference compound]
Infestation degree ([2]; 4 kg./ha.): moderate (moderate = 1 - 4 plants per m^2) | Infestation degree, plants per 10 square meters ([3]; 4 kg./ha.): 1-2 no. | Infestation degree ([3]; 4 kg./ha., 36 days): almost nil (almost nil = 0.1 plants per m^2) | Infestation degree ([4]; 4 kg./ha.): moderate (moderate = 1 - 4 plants per m^2) | Main root [5, 8]: 0 cm. | Shoot [5, 8]: 0 cm. | Stand (Sprouted plants) [5, 8]: 0%
